Source: patent US8053585B2, “Protecting group for carboxylic acids that can be photolyzed by visible light” (Cornell Research Foundation, Inc., priority 2006, dated 2011)

Tested on: GluR6 glutamate receptor
Test: Whole-cell current recording with cell-flow method, HEK 293 cells expressing GluR6
Type: cell-based
Settings: 1 mM DECM, −60 mV, pH 7.4, 22° C.
Source text: In whole-cell current recording experiments with DECM-caged glutamate, HEK 293 cells stably transfected with cDNA encoding the GluR6 were used. In whole-cell current recording experiments with DECM-caged glycine, HEK 293 cells were transiently transfected with the cDNA of the α1-subunit of the human glycine receptor by using the Polyfect™ transfection reagent (Qiagen GmbH, D-40724, Hilden, Germany). The cDNA of the α1-subunit was kindly provided by Professor H. Betz (Max-Plank-Institute for brain Research, Frankfurt, Germany). The cells were co-transfected with cDNA encoding the green fluorescent protein (pGreen Lantern plasmid, Life Technologies, Gaitherberg, Md.) to detect transfected cells (Chalfie et al., “Green Fluorescent Protein as a Marker for Gene Expression,” Science 263:802-805 (1994), which is hereby incorporated by reference in its entirety).
The cells were used for electrophysiological experiments between 24 and 72 h after each passage. Whole-cell currents evoked by glutamate or glycine (100 μM) were recorded using the whole-cell configuration (Hamill et al., “Improved Patch-Clamp Techniques for High-Resolution Current Recording From Cells and Cell-Free Membrane Patches,” Pfluegers Arch 391:85-100 (1981), which is hereby incorporated by reference in its entirety) at room temperature, −60 mV, and pH 7.4. The experiments using DECM-caged glutamate were carried out in the absence or presence of 2 mM DECM-caged glutamate (FIG. 5A) or 1 mM 7-N,N-diethylamino-4-hydroxymethylcoumarin (2) (FIG. 5B). Alternatively, the experiments using DECM-caged glycine were carried out in the absence or presence of 1 mM DECM-caged-glycine (FIG. 10). The solution in the recording pipet contained 120 mM CsCl, 10 mM EGTA, and 10 mM HEPES, adjusted to pH 7.4. The HEK cell bath solution contained 150 mM NaCl, 1 mM CaCl2, 10 mM HEPES, pH 7.4. The resistance of the recording electrode filled with buffer solution was typically 3-5 MΩ and the series resistance was 5-6 MΩ. The cells were held at a constant transmembrane voltage of −60 mV and room temperature (22° C.). […]

## CCN(CC)c1ccc2c(CO)cc(=O)oc2c1 [DECM, 7-N,N-Diethylamino-4-hydroxymethylcoumarin]
  whole-cell current evoked by 100 μM glutamate, presence vs absence of compound: do not inhibit
